The source of these data is the METLIN SMRT retention time set (Domingo-Almenara et al. 2019).

Structures are written as SMILES.

The data set can be described thus: gradient 5% acetonitrile 3 min, to 50% in 2 min, to 85% in 15 min, held 3 min, 100 µL/min. To be noted: column: Zorbax Extend-C18 2.1 x 50 mm; eluents: water / acetonitrile, 0.1% formic acid. The method in brief: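 The system's dead and dwell volumes were 40 μL and 900 μL, with a Zorbax Extend-C18 column (2.1 × 50 mm, 1.8 μm) run at 100 μL/min in water and acetonitrile containing 0.1% formic acid each. Pure standards were analyzed in mixtures of ~100 molecules by HPLC–quadrupole time-of-flight mass spectrometry in positive and negative ionization mode. Retention time was assigned from computationally picked, manually inspected adduct peaks.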
`Cc1nc(-c2csc(S(=O)(=O)N3CCCC(C(=O)N(C)Cc4ccccc4)C3)c2)no1` (centres undefined): the RP-LC retention time was 939 s.

Regarding `C=CCNC(=O)c1cn(-c2ncccc2-c2nc(C(C)(C)C)no2)cn1`, the RP-LC retention time came to 776 s.

The compound `COc1ccc(NC(=O)C2c3cc(OC)c(OC)cc3C(=O)N(C)C2c2cccnc2)c(OC)c1` (centres undefined) gave an RP-LC retention time of 655 s.

`CCCNC(=O)C1CCN(c2ccc(SCC(=O)Nc3ccc(F)cc3F)nn2)CC1` came in with an RP-LC retention time of 670 s.

In turn, `CCc1nn2c(CNS(=O)(=O)Cc3cccc(F)c3)c(-c3ccccc3)nc2s1` yielded an RP-LC retention time of 972 s.

With `CS(=O)(=O)N1CCC(C(=O)Nc2ccc(F)cc2)Oc2ccccc21` (centres undefined), the RP-LC retention time is 817 s.

Compound `Cc1nc(NC2=NCN(CCc3cccs3)CN2)nc2ccccc12` yielded an RP-LC retention time of 731 s.

Compound `CCCN1C(=O)CN(S(=O)(=O)c2ccccc2)CC1(C)C(=O)NCc1ccccc1` (centres undefined) displayed an RP-LC retention time of 809 s.

On to `Cc1cc(Cl)ccc1OCc1nc2c3ccccc3ncn2n1`, for which the RP-LC retention time was 1060 s.

Turning to `Cc1ccc(C)c(-c2nnc(NC(=O)c3ccc4c(c3)OCCO4)o2)c1`, the RP-LC retention time came to 921 s.

For the compound `CCC(C)NC(=O)CN1C(=O)CSc2c1c(C)nn2-c1ccccc1` (centres undefined), the RP-LC retention time was found to be 764 s.

Take `CCn1cc(CN2CCC(C(=O)NC3CCCCCC3)CC2)c2cc(OC)ccc21`: the RP-LC retention time came to 741 s.

Regarding `O=C(Nc1nnc(C2CC(=O)N(c3ccccc3)C2)o1)c1cccc(Cl)c1` (centres undefined), the RP-LC retention time is 767 s.

`CCc1ccc(-n2ncc3c(=O)n(Cc4nc(-c5ccc(C)c(C)c5)no4)cnc32)cc1` gave an RP-LC retention time of 1300 s.

As for `COc1ccc(Cc2nnc3sc(-c4ccc(N(C)C)cc4)nn23)cc1`, the RP-LC retention time stood at 1090 s.

On to `Cc1cc(F)ccc1NC(=O)C1CCCN1S(=O)(=O)c1cc2c(cc1Cl)NC(=O)CO2` (centres undefined), for which the RP-LC retention time turned out to be 745 s.

Compound `COC(=O)c1ccc(NC(=O)C2=Cc3ccccc3OC=C2)cc1` came in with an RP-LC retention time of 1060 s.

`CCN1CCN(c2cc(C(=O)O)c3cc(NC(=O)C(C)(C)C)ccc3n2)CC1` came in with an RP-LC retention time of 564 s.

In turn, `O=C(Cn1nc2c(SC3CCCCC3)nccn2c1=O)N1CCN(c2ccccc2)CC1` displayed an RP-LC retention time of 1110 s.

Turning to `Cc1ccc(CNC(=O)N(C)CC2CCOC2)cc1` (centres undefined), the RP-LC retention time was 575 s.

Regarding `COc1ccc(Nc2c(-c3nc(C)no3)cnc3nc(C)ccc23)c(OC)c1`, the RP-LC retention time worked out at 692 s.

Take `Cc1noc(-c2ccnc(-n3cnc(C(=O)N(C)C4CCCCC4)c3)c2)n1`: the RP-LC retention time came out at 737 s.

With `O=C1CC(c2noc(-c3cccc(OC(F)(F)F)c3)n2)CN1c1ccc(Cl)cc1` (centres undefined), the RP-LC retention time turned out to be 1210 s.

Regarding `CCCc1cc(C2CCCN2C(=O)Nc2cc(C)ccc2OC)no1` (centres undefined), the RP-LC retention time amounted to 1020 s.

Compound `COc1ccc(C)cc1S(=O)(=O)Nc1ccc(-c2cn3ccc(C)nc3n2)cc1` came in with an RP-LC retention time of 661 s.

`Cc1ccc(CNC(=O)CN2CCN(C(=O)Nc3ccc(F)cc3)CC2=O)o1` had an RP-LC retention time of 695 s.

Turning to `CCOC(=O)Cn1cc(S(=O)(=O)N2CCCCC2)ccc1=O`, the RP-LC retention time came to 762 s.

`CCOc1ccc(-c2nc(Cn3cnc4nc5c(cc4c3=O)CCCC5)c(C)o2)cc1` returned an RP-LC retention time of 870 s.

On to `CCc1cc(-c2csc(S(=O)(=O)N3CCc4ccccc4C3)c2)on1`, for which the RP-LC retention time worked out at 1110 s.

As to `Cc1ccc(C)c(CN2CCC(N3CCN(Cc4nc(C)no4)C3=O)C2)c1` (centres undefined), the RP-LC retention time turned out to be 630 s.

On to `O=C(Cc1cccc(Cl)c1)NC1CCN(c2cc(-c3cccs3)[nH]n2)C1` (centres undefined), for which the RP-LC retention time was 702 s.

`COc1ccc(-c2cc(=O)n3c4ccccc4n(CC(=O)NC(C)C)c3n2)cc1` returned an RP-LC retention time of 853 s.

The compound `CC(=O)N1CCc2cc(S(=O)(=O)Nc3ccc4c(c3)-c3nc(C)sc3CC4)ccc21` returned an RP-LC retention time of 784 s.

The compound `COc1ccc(-c2noc(-c3nc(-c4ccc(OC)c(OC)c4)no3)n2)cc1OC` had an RP-LC retention time of 1080 s.

Consider `CCc1nc2cccnc2n1C1CCN(C(=O)c2ccc(C(F)(F)F)cc2)C1` (centres undefined), for which the RP-LC retention time amounted to 649 s.

As to `Cc1noc(-c2cccc(OC3CN(C(=O)NC4CCCCC4)C3)c2)n1`, the RP-LC retention time came to 891 s.

As for `CCn1cc(C2=CCN(S(=O)(=O)c3cccc(C)c3)CC2)c2cccnc21`, the RP-LC retention time came out at 1040 s.

In turn, `Cc1ccc2nc(C)c(NC(=O)C3c4ccccc4Oc4ccccc43)c(=O)n2c1` showed an RP-LC retention time of 710 s.

For `COc1ccc(-c2noc(-c3ccc(N4CCN(C5CCCCC5)CC4)nc3)n2)cc1`, the RP-LC retention time came out at 778 s.

`CC1(C(=O)NC2CC2)CC(c2ccccc2)=NO1` (centres undefined) yielded an RP-LC retention time of 749 s.

`CCOC(=O)N1CCC2(CC1)N=C(c1ccc(Cl)cc1)CC(c1cccc(OCC)c1O)N2` (centres undefined) registered an RP-LC retention time of 871 s.

On to `Cc1cc(C)n(-c2ccc(=O)n(CCNS(=O)(=O)c3ccccc3C(F)(F)F)n2)n1`, for which the RP-LC retention time worked out at 763 s.

For `COC1CCN(CC2CCCCCN2C(=O)Nc2ccc3c(c2)OCCO3)CC1` (centres undefined), the RP-LC retention time came to 651 s.

`COc1ccc(S(=O)(=O)N2CCCC(C(=O)Nc3cc(C)ccc3C)C2)cc1Cl` (centres undefined) gave an RP-LC retention time of 1040 s.

As to `CCOc1ccccc1NC(=O)c1cnc2c(c1)c(=O)n(C)c(=O)n2-c1ccc(OC)cc1`, the RP-LC retention time stood at 961 s.

For `CC1(C)S[C@@H]2[C@H](NC(=O)Cc3ccccc3)C(=O)N2C1C(=O)O` (some centres undefined), the RP-LC retention time was 732 s.

For the compound `O=C(CN1C(=O)NC2(CCCCC2)C1=O)NCCc1ccc(Cl)cc1`, the RP-LC retention time was 790 s.

`CC(C)C(=O)NCCN1CCN(c2ccc(F)cc2)CC1`: the RP-LC retention time came to 561 s.

The compound `Cc1nc2cc(-c3noc(-c4sc(C)nc4C)n3)ccc2o1` registered an RP-LC retention time of 951 s.

On to `CCn1nccc1C(=O)N1CCCN(C2=NS(=O)(=O)C(c3ccc(C)cc3)=C2C)CC1`, for which the RP-LC retention time amounted to 769 s.

Turning to `COc1ccc(-n2c(CN3CCN(C(=O)NCc4ccco4)CC3)nc3cccnc32)cc1`, the RP-LC retention time amounted to 617 s.

Consider `COC(=O)c1sc(-c2ccccc2)cc1NC(=O)c1ccccc1[N+](=O)[O-]`, for which the RP-LC retention time worked out at 1110 s.

Take `Fc1ccc(-c2ccc(CNC3CN4CCC3CC4)o2)cc1` (centres undefined): the RP-LC retention time is 558 s.

Compound `O=S(=O)(Nc1cc(F)cc(F)c1)c1ccc(-c2nnc(C3CCC3)o2)o1` showed an RP-LC retention time of 930 s.

As to `Cc1ccc(S(=O)(=O)N2CCC(F)(c3nc(CC(C)C)no3)CC2)cc1F`, the RP-LC retention time was 1200 s.

`CCCn1ccc2oc(C)c(C(=O)NC(C)c3ccc(OCC)cc3)c2c1=O` (centres undefined) yielded an RP-LC retention time of 1070 s.

In the case of `O=C(CN1C(=O)C2CCCCN2c2ccc(S(=O)(=O)N3CCCC3)cc21)NC1CCCCCC1` (centres undefined), the RP-LC retention time amounted to 1000 s.

In turn, `CCN1CCn2cc(S(=O)(=O)NCc3ccccc3C(F)(F)F)cc2C1=O` showed an RP-LC retention time of 760 s.

The compound `COc1ccc(S(=O)(=O)N2CCC(CN3CCC(C)CC3)CC2)cc1Cl` registered an RP-LC retention time of 692 s.
